Source: patent publication US8822690B2, “High transmissional yellow dye for LCD and synthetic method thereof” (LG Display Co., Ltd., priority 2012, dated 2014)
Like-named read-outs stand apart in the source and are kept apart here.

Experiments:
Format in all cases: physicochemical
[1] = qualitative solubility assessment of the synthesized quinophthalone series dye; settings: organic solvent or mixture
Excerpt: In below Table 1, there were qualitative solubility assessment results of the synthesized quinophthalone series dye. […] This means that new design to improve solubility is successful. It was shown that QP3 improving intermolecular steric hindrance by bulk-sized alkyl residue and QP4 increasing affinity to the process solvent, PGMEA, by introducing carboxylate functional group increased its solubility successfully than QP1.

[2] = spectroscopic change by temperature and number of PB (Δ Eab)
Method: Color simulation was performed according to the condition described in FIG. 15.

[3] = solubility to PGMEA in primary color filter application property assessment; settings: for 1% solubility of dye to PGMEA: 1% in PGMEA
[4] = thermal resistance by Thermo Gravimetric Analyzer (TGA); settings: high temperature zone over 300° C.
Method: Through Thermo Gravimetric Analyzer (TGA), Thermogravimetric Analyzer 2050 (TA instruments), thermal resistance of the synthesized dye was measured (FIG. 3). For the thermal resistance test, change of mass reduction rate (w %) was measured by passing through isothermal section at 220° C. for 30 min, raising the temperature to 30° C.˜400° C. in 10° C./min. In order to apply it as a dye material for LCD color filter, the mass reduction in isothermal zone must be less than 5%. […] In case of QP3 and QP4, it was analyzed that functional groups introduced to improve the solubility gave somewhat reciprocal effects to the thermal resistance of dye. […] It seems that the weight loss is caused by effects of solvents or impurities rather than thermal resistance of dye itself.

[5] = UV-vis absorption spectroscopic analysis of dye; settings: slope of absorption reduction just prior to 500 nm, absorption after 500 nm
Excerpt: As QP3 and QP4 increased the molar extinction coefficient further in addition to somewhat bathochromic-shift of λmax, they show very strong and sharp absorption peaks prior to 500 nm. This is very ideal absorption peak for being used as a yellow compensation dye to correct the major green dye.

[6] = process solvent PGMEA, read-out: solubility in PGMEA
[7] = solvent CH2Cl2, read-out: solubility in CH2Cl2
[8] = 180° C., first value of PB sequence
[9] = 180° C., second value of PB sequence
[10] = 180° C., third value of PB sequence
[11] = 200° C., first value of PB sequence
[12] = 200° C., second value of PB sequence
[13] = 200° C., third value of PB sequence
[14] = 230° C., first value of PB sequence
[15] = 230° C., second value of PB sequence
[16] = 230° C., third value of PB sequence

For `CCOC(=O)c1ccc2c(c1)C(=O)/C(=C1\C=Cc3cccc(N4C(=O)c5ccc(C(=O)OCC)cc5C4=O)c3N1)C2=O` [QP4], the solubility [1, 6] was greater than 50 mg/mL, the solubility [1, 7] was greater than 50 mg/mL and the “spectroscopic change by # of PB (Δ Eab)” value [2, 8] was 1.11. The “spectroscopic change by # of PB (Δ Eab)” value [2, 9] was 1.42, the “spectroscopic change by # of PB (Δ Eab)” value [2, 10] was 1.59 and the “spectroscopic change by # of PB (Δ Eab)” value [2, 11] was 1.62. For the same compound, the “spectroscopic change by # of PB (Δ Eab)” value [2, 12] was 2.04, the “spectroscopic change by # of PB (Δ Eab)” value [2, 13] was 2.37 and the “spectroscopic change by # of PB (Δ Eab)” value [2, 14] was 3.51. The “spectroscopic change by # of PB (Δ Eab)” value [2, 15] was 6.3, the “spectroscopic change by # of PB (Δ Eab)” value [2, 16] was 9.36 and the “1% solubility of dye to PGMEA” value [3] was “satisfactory level”. The “solubility to PGMEA” value [3] was 5-7%.

`O=C1c2cccc3cccc(c23)C(=O)N1c1cccc2c1NC(=c1c(=O)c3cccc4cccc(c1=O)c43)C=C2` [QP2] gave a solubility [1, 6] greater than 0.5 mg/mL and a solubility [1, 7] greater than 0.5 mg/mL.

With `O=C1c2ccccc2C(=O)C1c1ccc2cccc(N3C(=O)c4ccccc4C3=O)c2n1` [QP1] the solubility [1, 6] was greater than 5 mg/mL and the solubility [1, 7] was greater than 5 mg/mL.

For `CC(C)(C)c1ccc2c(c1)C(=O)/C(=C1\C=Cc3cccc(N4C(=O)c5ccc(C(C)(C)C)cc5C4=O)c3N1)C2=O` [QP3], the “thermal resistance in high temperature zone” value [4] was “the best thermal resistance property”, the solubility [1, 6] was greater than 50 mg/mL and the solubility [1, 7] was greater than 50 mg/mL. The “spectroscopic change by # of PB (Δ Eab)” value [2, 8] was 0.36, the “spectroscopic change by # of PB (Δ Eab)” value [2, 9] was 1.84 and the “spectroscopic change by # of PB (Δ Eab)” value [2, 10] was 1.98. For the same compound, the “spectroscopic change by # of PB (Δ Eab)” value [2, 11] was 0.56, the “spectroscopic change by # of PB (Δ Eab)” value [2, 12] was 2.74 and the “spectroscopic change by # of PB (Δ Eab)” value [2, 13] was 2.77. The “spectroscopic change by # of PB (Δ Eab)” value [2, 14] was 2.94, the “spectroscopic change by # of PB (Δ Eab)” value [2, 15] was 9.3 and the “spectroscopic change by # of PB (Δ Eab)” value [2, 16] was 13.4. The “color property (UV-vis absorption peak)” value [5] was “the most excellent color property”, the “1% solubility of dye to PGMEA” value [3] was “satisfactory level” and the “solubility to PGMEA” value [3] was 5-10%.
